Legend:
[1] = Acute toxicity in 12 hr fasted female CD-1(ICR) mouse assessed as behavioral abnormalities at 2 g/Kg, IG measured after 14 days; settings: in vivo, po, 2000 mg/kg, 336 h, time 14 day
[2] = test system: Human immunodeficiency virus 1; assay: Antiviral activity against wild type HIV-1 IIIB harboring reverse transcriptase Y181C mutant infected in human MT4 cells assessed as protection against virus-induced cytopathic effect incubated for 5 days by MTT assay; format: functional, organism-based; settings: Human immunodeficiency virus 1, IIIB, MT4, 120 h
[3] = Resistant factor, ratio of EC50 for antiviral activity against HIV-1 IIIB harboring reverse transcriptase Y181C mutant to EC50 for antiviral activity against wild type HIV-1 IIIB; format: functional
[4] = test system: Human immunodeficiency virus 1; assay: Antiviral activity against wild type HIV-1 IIIB harboring reverse transcriptase E138K mutant infected in human MT4 cells assessed as protection against virus-induced cytopathic effect incubated for 5 days by MTT assay; format: functional, organism-based; settings: Human immunodeficiency virus 1, IIIB, MT4, 120 h
[5] = molecular target: T1, Cytochrome P450 1A2 (Homo sapiens, UniProt P05177); assay: Inhibition of CYP1A2 in human liver microsomes using phenacetin as substrate incubated for 15 to 45 mins in presence of NADPH; format: ADME, Microsome
T1 sequence (P05177 whole entry): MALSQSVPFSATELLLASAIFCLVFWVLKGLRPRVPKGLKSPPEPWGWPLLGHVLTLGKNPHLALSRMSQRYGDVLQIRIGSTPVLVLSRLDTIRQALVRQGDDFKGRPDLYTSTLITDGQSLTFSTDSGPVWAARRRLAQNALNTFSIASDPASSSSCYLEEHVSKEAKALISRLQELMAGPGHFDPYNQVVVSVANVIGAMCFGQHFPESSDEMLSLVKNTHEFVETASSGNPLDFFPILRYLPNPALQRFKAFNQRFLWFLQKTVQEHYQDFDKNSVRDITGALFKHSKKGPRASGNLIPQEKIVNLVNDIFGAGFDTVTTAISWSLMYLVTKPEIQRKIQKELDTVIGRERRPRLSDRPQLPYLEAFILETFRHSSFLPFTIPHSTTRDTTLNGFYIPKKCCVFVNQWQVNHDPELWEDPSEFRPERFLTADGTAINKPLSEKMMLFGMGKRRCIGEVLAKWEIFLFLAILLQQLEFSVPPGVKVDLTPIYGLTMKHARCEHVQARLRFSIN

[6] = molecular target: Cytochrome P450 2C9 (Homo sapiens, UniProt P11712); assay: Inhibition of CYP2C9 in human liver microsomes using tolbutamide as substrate incubated for 15 to 45 mins in presence of NADPH
Chain of Cytochrome P450 2C9 (P11712 whole entry): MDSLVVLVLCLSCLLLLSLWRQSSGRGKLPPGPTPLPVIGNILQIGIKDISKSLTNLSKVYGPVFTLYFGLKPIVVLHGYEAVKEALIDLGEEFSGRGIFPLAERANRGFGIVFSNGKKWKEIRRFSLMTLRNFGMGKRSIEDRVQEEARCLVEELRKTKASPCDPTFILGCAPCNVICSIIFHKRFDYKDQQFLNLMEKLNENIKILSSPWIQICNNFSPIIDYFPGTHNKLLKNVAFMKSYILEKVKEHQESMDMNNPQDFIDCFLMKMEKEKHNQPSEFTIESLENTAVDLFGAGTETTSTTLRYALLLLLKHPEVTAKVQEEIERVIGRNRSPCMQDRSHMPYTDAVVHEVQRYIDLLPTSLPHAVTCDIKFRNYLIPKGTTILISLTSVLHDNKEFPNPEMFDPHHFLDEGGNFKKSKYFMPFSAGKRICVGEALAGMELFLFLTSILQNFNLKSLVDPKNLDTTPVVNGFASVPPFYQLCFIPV

[7] = molecular target: Cytochrome P450 2D6 (Homo sapiens, UniProt P10635); assay: Inhibition of CYP2D6 in human liver microsomes using dextromethorphan as substrate incubated for 15 to 45 mins in presence of NADPH; format: ADME, Microsome
Chain of Cytochrome P450 2D6 (P10635 whole entry): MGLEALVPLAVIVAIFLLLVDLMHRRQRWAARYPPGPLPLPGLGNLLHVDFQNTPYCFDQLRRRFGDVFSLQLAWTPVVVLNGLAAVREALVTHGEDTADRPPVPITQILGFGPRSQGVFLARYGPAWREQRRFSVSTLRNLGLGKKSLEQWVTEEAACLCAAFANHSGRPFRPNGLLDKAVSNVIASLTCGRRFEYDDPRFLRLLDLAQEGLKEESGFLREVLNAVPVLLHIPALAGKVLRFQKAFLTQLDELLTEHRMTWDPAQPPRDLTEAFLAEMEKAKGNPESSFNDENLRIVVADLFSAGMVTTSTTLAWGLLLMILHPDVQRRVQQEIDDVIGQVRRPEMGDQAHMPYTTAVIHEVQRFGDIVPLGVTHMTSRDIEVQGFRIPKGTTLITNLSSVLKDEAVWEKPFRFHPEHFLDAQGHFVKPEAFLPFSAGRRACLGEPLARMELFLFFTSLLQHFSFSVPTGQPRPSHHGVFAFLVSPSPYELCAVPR

[8] = MRT (0 to infinity) in Sprague-Dawley rat at 10 mg/kg, po measured upto 24 hrs by LC-MS/MS analysis; format: ADME, organism-based; settings: in vivo
[9] = Half life in Sprague-Dawley rat at 1 mg/kg, iv measured upto 24 hrs by LC-MS/MS analysis; format: ADME, organism-based; settings: in vivo
[10] = Acute toxicity in 12 hr fasted male CD-1 (ICR) mouse assessed as death at 2 g/Kg, IG measured after 14 days; settings: in vivo, po, 2000 mg/kg, 336 h, time 14 day
[11] = Acute toxicity in 12 hr fasted male CD-1(ICR) mouse assessed as pathological damage in heart at 2 g/Kg, IG measured after 14 days by H and E staining based analysis; format: tissue-based; settings: in vivo, po, 2000 mg/kg, 336 h, time 14 day
[12] = Acute toxicity in 12 hr fasted female CD-1(ICR) mouse assessed as pathological damage in spleen at 2 g/Kg, IG measured after 14 days by H and E staining based analysis; format: tissue-based; settings: in vivo, po, 2000 mg/kg, 336 h, time 14 day
[13] = Acute toxicity in 12 hr fasted male CD-1(ICR) mouse assessed as pathological damage in lung at 2 g/Kg, IG measured after 14 days by H and E staining based analysis; format: tissue-based; settings: in vivo, po, 2000 mg/kg, 336 h, time 14 day
[14] = Acute toxicity in 12 hr fasted male CD-1(ICR) mouse assessed as pathological damage in kidney at 2 g/Kg, IG measured after 14 days by H and E staining based analysis; format: tissue-based; settings: in vivo, po, 2000 mg/kg, 336 h, time 14 day
[15] = Acute toxicity in 12 hr fasted female CD-1(ICR) mouse assessed as pathological damage in kidney at 2 g/Kg, IG measured after 14 days by H and E staining based analysis; format: tissue-based; settings: in vivo, po, 2000 mg/kg, 336 h, time 14 day
[16] = Acute toxicity in 12 hr fasted female CD-1(ICR) mouse assessed as pathological damage in brain at 2 g/Kg, IG measured after 14 days by H and E staining based analysis; format: tissue-based; settings: in vivo, po, 2000 mg/kg, 336 h, time 14 day

With `CONC(=O)c1cnc(Nc2ccc(C#N)cc2)nc1Oc1c(C)cc(-c2ccc(C#N)cc2)cc1C` the Activity [1] was “Non-Toxic”, the EC50 [2] was 0.029 µM and the “Ratio EC50” value [3] was 13. For the same compound, the EC50 [4] was 0.006 µM, the IC50 [5] was greater than 50 µM and the IC50 [6] was 18.5 µM. For the same compound, the IC50 [7] was greater than 50 µM, the MRT inf [8] was 5.21 h and the half-life [9] was 3.66 h. For the same compound, the Activity [10] was “Non-Toxic”, the Activity [11] was “Non-Toxic” and the Activity [12] was “Non-Toxic”. For the same compound, the Activity [13] was “Non-Toxic”, the Activity [14] was “Non-Toxic” and the Activity [15] was “Non-Toxic”. The Activity [16] was “Non-Toxic”.

Reference: ChEMBL document CHEMBL5380843 (J Med Chem, 2023)
